Laboratory results as given in PubChem BioAssay (NCI).
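Growth conditions: 96-well plates. Treatment: test compound, 48 hours, 5 concentrations. Analysis: linear interpolation between bracketing concentrations; unreached endpoints set to highest concentration. GI50 is the concentration that inhibits growth by half. The concentration for full growth arrest is given as TGI.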

Assays:
Experiment in all cases: NCI-60 cell line screen, 48 h
OVCAR-5 ovarian = test system: OVCAR-5 ovarian
SN12C renal = test system: SN12C renal
DMS 273 small cell lung = test system: DMS 273 small cell lung
SK-MEL-2 melanoma = test system: SK-MEL-2 melanoma
EKVX NSCLC = test system: EKVX NSCLC
TK-10 renal = test system: TK-10 renal
OVCAR-3 ovarian = test system: OVCAR-3 ovarian
DLD-1 colon = test system: DLD-1 colon
MOLT-4 leukemia = test system: MOLT-4 leukemia
MDA-MB-231 breast = test system: MDA-MB-231 breast

CCOC(=O)C(=O)C1C(=O)Nc2ccccc21 (configuration not stated)
TGI (OVCAR-5 ovarian): > 100 µM
TGI (SN12C renal): > 100 µM
TGI (DMS 273 small cell lung): > 100 µM
TGI (SK-MEL-2 melanoma): > 100 µM
TGI (EKVX NSCLC): > 100 µM
TGI (TK-10 renal): > 100 µM
TGI (OVCAR-3 ovarian): > 100 µM
TGI (DLD-1 colon): > 100 µM
TGI (MOLT-4 leukemia): > 100 µM

Cn1cc(NC(=O)c2cc(NC(=O)Nc3cc(C(=O)Nc4cc(C(=O)NCCC(=N)N)n(C)c4)n(C)c3)cn2C)cc1C(=O)NCCC(=N)N
TGI (OVCAR-5 ovarian): > 100 µM
TGI (SN12C renal): > 100 µM
TGI (DMS 273 small cell lung): 29.6 µM
TGI (EKVX NSCLC): > 100 µM
TGI (TK-10 renal): 54.7 µM
TGI (OVCAR-3 ovarian): > 100 µM
TGI (DLD-1 colon): > 100 µM
TGI (MOLT-4 leukemia): > 100 µM

O=c1[nH]c(=O)n(C2CC(O)C(CO)O2)cc1C(OCC(F)(F)F)OCC(F)(F)F (configuration not stated)
TGI (OVCAR-5 ovarian): > 100 µM
TGI (SN12C renal): > 100 µM
TGI (DMS 273 small cell lung): > 100 µM
TGI (SK-MEL-2 melanoma): > 100 µM
TGI (EKVX NSCLC): > 100 µM
TGI (TK-10 renal): > 100 µM
TGI (OVCAR-3 ovarian): > 100 µM
TGI (DLD-1 colon): > 100 µM
TGI (MOLT-4 leukemia): > 100 µM

CC(=O)O[C@H]1CC[C@@]2(C)C(CC[C@]3(C)C2CC[C@]2(C)Oc4c(C)cc(O)cc4C[C@@H]23)C1(C)C (some centres not stated)
TGI (OVCAR-5 ovarian): 23.6 µM
TGI (DMS 273 small cell lung): 12.7 µM
TGI (SK-MEL-2 melanoma): 21.4 µM
TGI (EKVX NSCLC): 46.9 µM
TGI (TK-10 renal): 29.3 µM
TGI (OVCAR-3 ovarian): 25.7 µM
TGI (DLD-1 colon): 27.1 µM
TGI (MOLT-4 leukemia): 9.75 µM

CC1=C(C)CC2(SC1)C(=O)c1ccccc1C2=O
TGI (OVCAR-5 ovarian): > 100 µM
TGI (SN12C renal): > 100 µM
TGI (DMS 273 small cell lung): > 100 µM
TGI (SK-MEL-2 melanoma): > 100 µM
TGI (TK-10 renal): > 100 µM
TGI (DLD-1 colon): > 100 µM
TGI (MOLT-4 leukemia): > 100 µM

COc1ccccc1/C=C1\CCC(CNc2ccc(Cl)cc2)C1=O (configuration not stated)
TGI (OVCAR-5 ovarian): 23.6 µM
TGI (SN12C renal): 26.5 µM
TGI (DMS 273 small cell lung): 20.2 µM
TGI (SK-MEL-2 melanoma): 26.7 µM
TGI (EKVX NSCLC): 20.2 µM
TGI (TK-10 renal): 18.6 µM
TGI (OVCAR-3 ovarian): 22.9 µM
TGI (DLD-1 colon): 17.5 µM
TGI (MOLT-4 leukemia): 27.4 µM

O=C1CCC2CCc3cccc4oc1c2c34 (configuration not stated)
TGI (SN12C renal): > 100 µM
TGI (DMS 273 small cell lung): > 100 µM
TGI (EKVX NSCLC): > 100 µM
TGI (TK-10 renal): > 100 µM
TGI (OVCAR-3 ovarian): > 100 µM
TGI (DLD-1 colon): > 100 µM
TGI (MOLT-4 leukemia): > 100 µM

CCN(CC)CC(=O)/C=C/c1ccc(C)cc1
TGI (OVCAR-5 ovarian): > 100 µM
TGI (SN12C renal): 33.4 µM
TGI (DMS 273 small cell lung): 55 µM
TGI (TK-10 renal): 74.8 µM
TGI (OVCAR-3 ovarian): 45.1 µM
TGI (DLD-1 colon): 59.6 µM
TGI (MOLT-4 leukemia): > 100 µM

CNS(=O)(=O)NN(C)S(=O)(=O)c1ccc(Cl)cc1
TGI (SN12C renal): > 100 µM
TGI (DMS 273 small cell lung): > 100 µM
TGI (SK-MEL-2 melanoma): > 100 µM
TGI (EKVX NSCLC): > 100 µM
TGI (TK-10 renal): > 100 µM
TGI (OVCAR-3 ovarian): > 100 µM
TGI (DLD-1 colon): > 100 µM
TGI (MOLT-4 leukemia): > 100 µM

Nc1nc2c(c3ncccc13)C(c1ccc(Cl)c(Cl)c1)Cc1ncccc1-2 (configuration not stated)
GI50 (OVCAR-5 ovarian): 6.51 µM
TGI (OVCAR-5 ovarian): 24.2 µM
GI50 (SN12C renal): 6.71 µM
TGI (SN12C renal): 24.8 µM
GI50 (SK-MEL-2 melanoma): 3.79 µM
TGI (SK-MEL-2 melanoma): 15.8 µM
GI50 (EKVX NSCLC): 4.86 µM
TGI (EKVX NSCLC): 18.4 µM
GI50 (TK-10 renal): 6.46 µM
TGI (TK-10 renal): 20.5 µM
GI50 (MDA-MB-231 breast): 4.05 µM
TGI (MDA-MB-231 breast): 17.1 µM
GI50 (OVCAR-3 ovarian): 2.59 µM
TGI (OVCAR-3 ovarian): 7.63 µM
GI50 (MOLT-4 leukemia): 3.3 µM
TGI (MOLT-4 leukemia): 15.2 µM

COc1ccc(S(=O)(=O)N/N=C/CN2C(=O)c3ccccc3C2=O)cc1OC
TGI (DMS 273 small cell lung): > 100 µM
TGI (SK-MEL-2 melanoma): > 100 µM
TGI (EKVX NSCLC): > 100 µM
TGI (OVCAR-3 ovarian): > 100 µM
TGI (DLD-1 colon): > 100 µM
TGI (MOLT-4 leukemia): > 100 µM

Cn1ccnc1C(c1nccn1C)C(C)(C)[N+](=O)[O-]
TGI (SN12C renal): > 100 µM
TGI (DMS 273 small cell lung): > 100 µM
TGI (SK-MEL-2 melanoma): > 100 µM
TGI (EKVX NSCLC): > 100 µM
TGI (TK-10 renal): > 100 µM
TGI (OVCAR-3 ovarian): > 100 µM
TGI (DLD-1 colon): > 100 µM
TGI (MOLT-4 leukemia): > 100 µM

O=C1O[C@H](C(Cl)(Cl)Cl)N2CCCC12 (some centres not stated)
TGI (OVCAR-5 ovarian): > 100 µM
TGI (SN12C renal): > 100 µM
TGI (DMS 273 small cell lung): > 100 µM
TGI (SK-MEL-2 melanoma): > 100 µM
TGI (EKVX NSCLC): > 100 µM
TGI (TK-10 renal): > 100 µM
TGI (OVCAR-3 ovarian): > 100 µM
TGI (MOLT-4 leukemia): > 100 µM

Cc1nc2cncc(C#Cc3cncc(C(=O)Nc4ccc(CN5CCN(C)CC5)c(C(F)(F)F)c4)c3)c2nc1C
GI50 (OVCAR-5 ovarian): 0.608 µM
TGI (OVCAR-5 ovarian): 17.5 µM
GI50 (SN12C renal): 0.275 µM
TGI (SN12C renal): 17 µM
GI50 (SK-MEL-2 melanoma): 0.204 µM
TGI (SK-MEL-2 melanoma): 0.94 µM
GI50 (EKVX NSCLC): 0.8 µM
TGI (EKVX NSCLC): 5.05 µM
GI50 (TK-10 renal): 0.727 µM
TGI (TK-10 renal): 7 µM
GI50 (MDA-MB-231 breast): 0.229 µM
TGI (MDA-MB-231 breast): 1.03 µM
GI50 (OVCAR-3 ovarian): 0.899 µM
TGI (OVCAR-3 ovarian): 6.54 µM
GI50 (MOLT-4 leukemia): 0.45 µM
TGI (MOLT-4 leukemia): 10.4 µM

C=CCC12CCC(=O)C=C1CCC1(C2)OCCO1 (configuration not stated)
TGI (SN12C renal): > 100 µM
TGI (DMS 273 small cell lung): > 100 µM
TGI (SK-MEL-2 melanoma): > 100 µM
TGI (EKVX NSCLC): > 100 µM
TGI (TK-10 renal): > 100 µM
TGI (OVCAR-3 ovarian): > 100 µM
TGI (DLD-1 colon): > 100 µM
TGI (MOLT-4 leukemia): > 100 µM

OCCN(CCO)c1cccc(N(CCO)CCO)c1
TGI (DMS 273 small cell lung): > 100 µM
TGI (SK-MEL-2 melanoma): > 100 µM
TGI (EKVX NSCLC): > 100 µM
TGI (TK-10 renal): > 100 µM
TGI (OVCAR-3 ovarian): > 100 µM
TGI (DLD-1 colon): > 100 µM
TGI (MOLT-4 leukemia): > 100 µM

CC1=C(C(=O)Nc2ccc3[nH]ncc3c2)C(c2ccc(F)cc2)NC(=O)N1 (configuration not stated)
GI50 (OVCAR-5 ovarian): > 25 µM
TGI (OVCAR-5 ovarian): > 25 µM
GI50 (SN12C renal): > 25 µM
TGI (SN12C renal): > 25 µM
GI50 (SK-MEL-2 melanoma): > 25 µM
TGI (SK-MEL-2 melanoma): > 25 µM
GI50 (EKVX NSCLC): > 25 µM
TGI (EKVX NSCLC): > 25 µM
GI50 (TK-10 renal): > 25 µM
TGI (TK-10 renal): > 25 µM
GI50 (MDA-MB-231 breast): > 25 µM
TGI (MDA-MB-231 breast): > 25 µM
GI50 (OVCAR-3 ovarian): > 25 µM
TGI (OVCAR-3 ovarian): > 25 µM
GI50 (MOLT-4 leukemia): > 25 µM
TGI (MOLT-4 leukemia): > 25 µM

NC(=O)C(Br)CBr (configuration not stated)
GI50 (OVCAR-5 ovarian): 5.73 µM
TGI (OVCAR-5 ovarian): 13.7 µM
GI50 (SN12C renal): 3.93 µM
TGI (SN12C renal): 20.6 µM
GI50 (SK-MEL-2 melanoma): 2.26 µM
GI50 (EKVX NSCLC): 1.9 µM
TGI (EKVX NSCLC): 4.92 µM
GI50 (TK-10 renal): 2.24 µM
TGI (TK-10 renal): 6.33 µM
GI50 (MDA-MB-231 breast): 2.3 µM
TGI (MDA-MB-231 breast): 4.76 µM
GI50 (OVCAR-3 ovarian): 1.48 µM
TGI (OVCAR-3 ovarian): 2.83 µM
GI50 (MOLT-4 leukemia): 1.42 µM
TGI (MOLT-4 leukemia): 4.15 µM

C=C(C)C(=O)OC1CC2(C)OC2CC(OC(C)=O)/C(C)=C/C2OC(=O)C(=C)C21 (configuration not stated)
TGI (OVCAR-5 ovarian): 17.5 µM
TGI (SN12C renal): 9.37 µM
TGI (SK-MEL-2 melanoma): 18.1 µM
TGI (EKVX NSCLC): 18.2 µM
TGI (TK-10 renal): 14.1 µM
TGI (MDA-MB-231 breast): 18.5 µM
TGI (OVCAR-3 ovarian): 7.96 µM
TGI (MOLT-4 leukemia): 6.69 µM

O=S1(=O)N(Cc2ccccc2)[C@@H](Cc2ccccc2)C2O[C@H]2[C@H](Cc2ccccc2)N1Cc1ccccc1 (some centres not stated)
GI50 (OVCAR-5 ovarian): > 7.5 µM
TGI (OVCAR-5 ovarian): > 7.5 µM
GI50 (SN12C renal): > 7.5 µM
TGI (SN12C renal): > 7.5 µM
GI50 (SK-MEL-2 melanoma): > 7.5 µM
TGI (SK-MEL-2 melanoma): > 7.5 µM
GI50 (EKVX NSCLC): 6.55 µM
TGI (EKVX NSCLC): > 7.5 µM
GI50 (TK-10 renal): 3.9 µM
TGI (TK-10 renal): > 7.5 µM
GI50 (MDA-MB-231 breast): > 7.5 µM
TGI (MDA-MB-231 breast): > 7.5 µM
GI50 (OVCAR-3 ovarian): 4.03 µM
TGI (OVCAR-3 ovarian): > 7.5 µM
GI50 (MOLT-4 leukemia): 4.12 µM
TGI (MOLT-4 leukemia): > 7.5 µM

Nc1ccc(-c2nc3ccccc3[nH]2)c(O)c1
GI50 (OVCAR-5 ovarian): 36.4 µM
TGI (OVCAR-5 ovarian): > 100 µM
GI50 (SN12C renal): 42.4 µM
TGI (SN12C renal): > 100 µM
GI50 (SK-MEL-2 melanoma): > 100 µM
TGI (SK-MEL-2 melanoma): > 100 µM
GI50 (EKVX NSCLC): 15.1 µM
TGI (EKVX NSCLC): > 100 µM
GI50 (TK-10 renal): 17.8 µM
TGI (TK-10 renal): 84 µM
GI50 (MDA-MB-231 breast): 17 µM
TGI (MDA-MB-231 breast): 47.3 µM
GI50 (OVCAR-3 ovarian): 40.4 µM
TGI (OVCAR-3 ovarian): > 100 µM
GI50 (MOLT-4 leukemia): 39.7 µM
TGI (MOLT-4 leukemia): > 100 µM
